Assay results from article PMC10272112 (Nature Communications, 2023).
Where “and” joins values, the source holds several entries; their conditions need not be identical. Equal values may be shown once. Read-outs that look alike come from different tables or passages of the source.

How the values were obtained:
HDAC3/NcoR2 complex = biological target: T1, HDAC3/NcoR2 complex (Homo sapiens, UniProt O15379); experiment: HDAC-Glo assay; assay type: biochemical; conditions: for HDCA3 relative activity: sheet S2b
T1 construct: purchased BPS Bioscience 50003
Experimental: To validate the inhibition of HDACs by LA and LM and elaborate on the structure-activity relationship (SAR) of enantiomers as well as oxidized versus reduced forms of the molecules, we performed enzyme activity assays for recombinant HDAC1,2,3,6,8 as well as FRET-based binding assay for recombinant HDAC10.
The experiments were performed according to ref. [48]. […] Drug dosing was performed with a D300e Digital Dispenser (Tecan). HDACs (7 ng/mL for HDAC1, 25 ng/mL for HDAC2, 200 ng/mL for HDAC3/Ncor2 complex, 100 ng/mL for HDAC6, 200 ng/mL for HDAC8) and inhibitors were incubated together at room temperature (RT) for 30 min. After the addition of the HDAC-Glo™ I/II reagent, plates were shaken (800 rpm orbital shaker, 30 s), centrifuged (300 g, 1 min), and incubated at RT for 30 min. Luminescence was detected with a CLARIOstar (BMG Labtech) plate reader.

[1] = biological target: HDACs (HDAC1, HDAC2, HDAC6); experiment: Chemoproteomic competition pulldown assay (HDAC panel); assay type: binding
Experimental: (§1) To identify proteins directly bound by lipoic acid, we employed a chemoproteomic competition assay. Briefly, (R/S)-LA was immobilized on sepharose beads via an amidation reaction to form an affinity matrix (abbreviated as iL; Fig. 1a). This affinity matrix can be incubated with cell lysate to pull down potential LA or LM target proteins and identify these targets via bottom-up proteomics. In a competition assay, free LA or LM were incubated with lysate at different concentrations before pulling down and quantifying target proteins. […] (Fig. 1b, see “Methods” for details). […] The lysate buffer used in this assay contains 1 mM DTT to mimic the intracellular reductive milieu and to reduce lipoic acid and LM. […] Additional competition assays performed in lung adenocarcinoma cell A549 lysate also identified HDAC1, HDAC2, and HDAC6 as targets (Supplementary Fig. 1b). Amongst the three cell lines tested, HDACs were the only confidently identified targets across the 1500–3000 proteins quantified in these assays. […] We validated the results by analogous pulldown competition assays using two other affinity matrices prepared via the immobilization of either the HDAC inhibitor Quisinostat (iQ) and an analog of the class IIa HDAC inhibitor Bürli’s 31[14] (iC)[12]. We have previously shown that these affinity matrices specifically bind to the active sites of HDACs and have used them for HDACi selectivity profiling. Indeed, binding of (R/S)-LA and (R/S)-LM to HDAC1, HDAC2, HDAC3, HDAC6, and, to a lesser extent, HDAC8 was confirmed in these assays (Supplementary Fig. 1c, d). No binding to class IIa HDACs or the recently discovered common HDAC inhibitor off-target MBLAC2 was observed (Supplementary Fig. 1e)[12]. […] This observation might reflect electrostatic repulsion between the HDAC10 active site gate-keeper glutamic acid residues[15],[16] and the terminal carboxylic acid of LA.
To assess the degree of protein depletion from lysates by the affinity matrix, a second pulldown (PDPD) with fresh beads was performed using the unbound protein fraction from the vehicle control flow through. The beads were washed (1 × 1 mL of lysis buffer without inhibitors and only 0.4% Igepal, 2 × 2 mL of lysis buffer without inhibitors and only 0.2% Igepal), and captured proteins were denatured with 8 M urea buffer, alkylated with 55 mM chloroacetamide and digested with Trypsin according to standard procedures. […]
For the competition assays, relative binding was calculated based on the protein intensity ratio to the DMSO control for every single inhibitor concentration. […] The correction factor is determined by calculating the ratio of the protein intensity of two consecutive pulldowns of the vehicle control sample[13]. […]

MIER1 = experiment: Chemoproteomic competition pulldown assay (HDAC interactor); assay type: binding; conditions: iQ, SW620 lysate
Experimental: as §1
To assess the degree of protein depletion from lysates by the affinity matrix, a second pulldown (PDPD) with fresh beads was performed using the unbound protein fraction from the vehicle control flow through. The beads were washed (1 × 1 mL of lysis buffer without inhibitors and only 0.4% Igepal, 2 × 2 mL of lysis buffer without inhibitors and only 0.2% Igepal), and captured proteins were denatured with 8 M urea buffer, alkylated with 55 mM chloroacetamide and digested with Trypsin according to standard procedures. The resulting peptides were desalted on a C18 filter plate (Sep-Pak® tC18 µElution Plate, Waters), vacuum dried, and stored at −20 °C until LC–MSMS measurement.
For the competition assays, relative binding was calculated based on the protein intensity ratio to the DMSO control for every single inhibitor concentration. EC50 values were derived from a four-parameter log-logistic regression with variable slope (constrain: bottom > 0). The obtained EC50 values were multiplied with a protein-dependent correction factor (cf), resulting in the apparent Kd value (Kd^app). The correction factor is determined by calculating the ratio of the protein intensity of two consecutive pulldowns of the vehicle control sample[13]. Targets of the inhibitors were annotated manually according to published procedures[12],[46],[47]. […] Additionally, the number of unique peptides and MSMS counts per condition were taken into account. Positive target binding across several independent experiments performed with different cell lysates further substantiated our confidence for a true positive drug-target binding event.

T1 sequence (O15379 whole entry): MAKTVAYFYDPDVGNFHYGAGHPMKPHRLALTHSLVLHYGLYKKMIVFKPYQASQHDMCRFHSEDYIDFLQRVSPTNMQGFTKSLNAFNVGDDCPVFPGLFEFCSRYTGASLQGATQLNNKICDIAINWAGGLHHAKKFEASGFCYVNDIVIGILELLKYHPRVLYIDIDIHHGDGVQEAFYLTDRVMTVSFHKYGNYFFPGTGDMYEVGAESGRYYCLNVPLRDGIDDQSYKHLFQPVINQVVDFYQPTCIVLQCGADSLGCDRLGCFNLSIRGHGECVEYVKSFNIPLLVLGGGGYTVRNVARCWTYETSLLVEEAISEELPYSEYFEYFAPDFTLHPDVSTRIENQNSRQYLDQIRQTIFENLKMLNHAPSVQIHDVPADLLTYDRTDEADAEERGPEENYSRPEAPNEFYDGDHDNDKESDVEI
T1 sequence (Q9Y618 395-489 partner limits assumed): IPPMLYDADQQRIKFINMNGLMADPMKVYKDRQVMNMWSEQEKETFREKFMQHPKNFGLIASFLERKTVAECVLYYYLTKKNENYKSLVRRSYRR

With `O=C(O)CCCCC1CCSS1` (racemic) [(R/S)-LA, (R/S)-lipoic acid] the “HDAC enzymatic activity (normalized luminescence)” value (HDAC3/NcoR2 complex; 0.5 M TCEP, log10 M -3.30103, 3 technical replicates) was 7.256 and 7.282 and 7.339, the “HDAC enzymatic activity (normalized luminescence)” value (HDAC3/NcoR2 complex; 0.5 M TCEP, log10 M -3.82945, 3 technical replicates) was 17.0785 and 16.9479 and 17.22 and the “HDAC enzymatic activity (normalized luminescence)” value (HDAC3/NcoR2 complex; 0.5 M TCEP, log10 M -4.35788, 3 technical replicates) was 49.3596 and 49.0858 and 50.0362. The “HDAC enzymatic activity (normalized luminescence)” value (HDAC3/NcoR2 complex; 0.5 M TCEP, log10 M -4.88629, 3 technical replicates) was 95.5948 and 97.1564 and 98.2162, the “HDAC enzymatic activity (normalized luminescence)” value (HDAC3/NcoR2 complex; 0.5 M TCEP, log10 M -5.41477, 3 technical replicates) was 101.96 and 103.73 and 105.005 and the “HDAC enzymatic activity (normalized luminescence)” value (HDAC3/NcoR2 complex; 0.5 M TCEP, log10 M -5.94309, 3 technical replicates) was 91.2378 and 92.4271 and 93.0815. The “HDAC enzymatic activity (normalized luminescence)” value (HDAC3/NcoR2 complex; 0.5 M TCEP, log10 M -6.47756, 3 technical replicates) was 89.2879 and 93.1305 and 94.7241, the “HDAC enzymatic activity (normalized luminescence)” value (HDAC3/NcoR2 complex; 0.5 M TCEP, log10 M -6.87615, 3 technical replicates) was 90.3991 and 92.4306 and 92.5457 and the “HDAC enzymatic activity (normalized luminescence)” value (HDAC3/NcoR2 complex; no TCEP, log10 M -3.30103, 3 technical replicates) was 64.3889 and 65.753 and 66.6157. The “HDAC enzymatic activity (normalized luminescence)” value (HDAC3/NcoR2 complex; no TCEP, log10 M -3.82945, 3 technical replicates) was 67.3361 and 68.514 and 68.6262, the “HDAC enzymatic activity (normalized luminescence)” value (HDAC3/NcoR2 complex; no TCEP, log10 M -4.35788, 3 technical replicates) was 79.5043 and 81.2871 and 81.6059 and the “HDAC enzymatic activity (normalized luminescence)” value (HDAC3/NcoR2 complex; no TCEP, log10 M -4.88629, 3 technical replicates) was 87.8136 and 89.4197 and 90.6707. The “HDAC enzymatic activity (normalized luminescence)” value (HDAC3/NcoR2 complex; no TCEP, log10 M -5.41477, 3 technical replicates) was 88.1589 and 90.4647 and 92.122, the “HDAC enzymatic activity (normalized luminescence)” value (HDAC3/NcoR2 complex; no TCEP, log10 M -5.94309, 3 technical replicates) was 88.1501 and 88.386 and 90.7058 and the “HDAC enzymatic activity (normalized luminescence)” value (HDAC3/NcoR2 complex; no TCEP, log10 M -6.47756, 3 technical replicates) was 88.6188 and 88.5508 and 90.3108. For the same compound, the “HDAC enzymatic activity (normalized luminescence)” value (HDAC3/NcoR2 complex; no TCEP, log10 M -6.87615, 3 technical replicates) was 97.6646 and 98.0479 and 97.5948, the EC50 (HDAC3/NcoR2 complex; read-out: log EC50 from dose-dependent HDAC inhibition curves (converted)) was 41.7 µM and the HDCA3 relative activity (HDAC3/NcoR2 complex; log conc -3.30103) was 4.168 and 4.13 and 4.176. For the same compound, the HDCA3 relative activity (HDAC3/NcoR2 complex; log conc -3.82945) was 8.909 and 8.94 and 8.919, the HDCA3 relative activity (HDAC3/NcoR2 complex; log conc -4.35788) was 25.3559 and 24.0859 and 24.4605 and the HDCA3 relative activity (HDAC3/NcoR2 complex; log conc -4.88629) was 55.6369 and 56.3521 and 62.4157. For the same compound, the HDCA3 relative activity (HDAC3/NcoR2 complex; log conc -5.41477) was 100.947 and 102.17 and 103.057, the HDCA3 relative activity (HDAC3/NcoR2 complex; log conc -5.94309) was 105.476 and 106.045 and 106.401 and the HDCA3 relative activity (HDAC3/NcoR2 complex; log conc -6.47756) was 89.5862 and 90.873 and 93.4553. For the same compound, the HDCA3 relative activity (HDAC3/NcoR2 complex; log conc -6.87615) was 104.127 and 108.406 and 102.786, the Kd ([1]; iL, SW620 lysate, 1 mM DTT, range over HDAC1, HDAC2, HDAC6, read-out: affinities (Kd app)) was 3 to 33 µM and the EC50 ([1]; peer review response, read-out: EC50 in chemoproteomic competition assays) was 5 to 30 µM. The Kd ([1]; peer review response, read-out: potency of target binding (Kd)) was 5 to 30 µM, the “relative binding vs DMSO” value (MIER1; log10 M -3.52288) was 0.1271 and the “relative binding vs DMSO” value (MIER1; log10 M -4) was 0.313. The “relative binding vs DMSO” value (MIER1; log10 M -4.52288) was 0.5121, the “relative binding vs DMSO” value (MIER1; log10 M -5) was 0.4151 and the “relative binding vs DMSO” value (MIER1; log10 M -5.52288) was 0.7821. For the same compound, the “relative binding vs DMSO” value (MIER1; log10 M -6) was 0.8468, the “relative binding vs DMSO” value (MIER1; log10 M -6.52288) was 1.155 and the “relative binding vs DMSO” value (MIER1; log10 M -7) was 0.8632.
